Values joined by “and” are separate entries in the source; they are usually repeats but may differ in a detail not shown here. Equal values may be shown once.
Legend:
[1] = Delivery of cell-penetrating peptides to the brain of healthy rats, confocal microscopy; format: in vivo, rat
Description: Animal preparation, IA-TCH injection, and brain tumor implantation. Animal protocols were approved by the Columbia University Institutional Animal Care and Use Committee (IACUC). Studies were primarily conducted on Sprague-Dawley rats weighing 250 to 300 grams. In the case of electron multiplying charge-coupled device imaging studies, Fisher 344 rats implanted with 9L brain tumors were utilized. The surgical preparation including anesthesia, carotid and femoral cannulation, cerebral blood flow and vital sign monitoring, as well as in vivo fluorescence imaging have been previously described in detail.
IA injections of cell-penetrating peptides (CPPs) were made during TCH as 65 μL pulses totaling 1 ml in volume. TCH was produced by a bolus injection of adenosine, esmolol, and cold saline. Animals were allowed to hemodynamically recover from TCH and euthanized 10 minutes after injection. Uptake of CPPs was assessed with a fluorescence camera and with confocal fluorescence microscopy.
Cell-penetrating peptides. Two experimental cell-penetrating peptides were tested: 1. octaarginine, also called (Arg)8 or R-8 (SEQ ID NO: 13) and 2. trans-activator of transcription or TAT (Lifetien Inc.). The 14 amino acid peptide sequence for TAT is […]COOH (SEQ ID NO: 11). Both cell-penetrating peptides (CPPs) were labeled with fluorescein so that their distribution could be identified by multispectral imaging and with fluorescence microscopy of the frozen brain sections.
Fluorescence and electron multiplying charge-coupled device imaging.

9L glioma tumors = experiment: Single arrest study: IV versus IA-TCH (multi-spectral imaging and confocal microscopy); format: in vivo, rat
Procedure: Single Arrest Study. 9L glioma tumors were implanted into eight rats. […] Animals were sacrificed 15 minutes after injection. […] Brain tissues were also hematoxylin and eosin stained and imaged by confocal microscopy.

9L glioma [2] = experiment: Quantitative tumor TAT-FITC uptake, electron multiplying charge-coupled device imaging; format: in vivo, rat
Description: In addition to the standard fluorescence imaging described above, we assess tumor uptake of TAT-FITC using a higher resolution, quantitative tool utilizing an electron-multiplying charge coupled device. To accomplish this we used two warm white light LEDs to evenly illuminate the tissue samples through a narrow (10 nm) band pass filter with 470 nm central transmission (Thor Labs, New Jersey). An Evolve 520 high sensitivity electron multiplying charge-coupled device (Photometeric Inc. Tucson, AZ) was utilized while using a 520 nm narrow band pass filter. Each sample was normalized to the background and to the injected drug concentrations. Four 2 mm sections were interrogated for each specimen on either side of the plane of tumor implantation. The data was corrected for ambient light, tissue independent background fluorescence, and contralateral hemisphere tissue fluorescence.

9L glioma [3] = experiment: IA-TCH versus IV delivery: uptake by multi-spectral imaging of gross specimens; format: in vivo, rat
Description: Comparison of […] and IV TAT delivery. Fisher 344 rats weighing about 200 g were utilized. During initial surgery under ketamine-xylazine isoflurane anesthesia 5×10^5 9 L cells were implanted 3 mm below the skull and 2-3 mm posterior and lateral to the bregma through a 1 mm craniotomy. […] The animals were assigned separately to IV and IA-TCH groups. On the day of drug delivery, animals were sedated with isoflurane and injected with ketamine/xylazine. The tail vein was cannulated for intravenous access. Under aseptic precautions, a tracheostomy and carotid cannulation were performed. Anesthesia was maintained by mechanical ventilation with isoflurane (1.8-2.2%). Thereafter animals were turned prone on a stereotactic frame. The skull was exposed and the region of tumor implantation was shaved to transparency. A laser Doppler probe was implanted on the skull with the aid of a plastic holder to assess cerebral/tumor blood flow. Rectal temperature, pulse pleth (volume), pulse oxygen saturation, EKG, expired and inspired gas composition, brain and skin blood flow with lase Doppler were continuously monitored.
Transient cerebral hypoperfusion and fluorescein-labeled TAT monomer injection. IA injections were made during TCH by the following method. Reduction of blood flow was achieved by bolus IV injections of adenosine (2 mg) and esmolol (2 mg), and cold saline (1.5 mL at 4° C.). Typically such an intervention decreases cerebral blood flow to about 20% of the baseline. The heart rate response varies from sinus bradycardia to a sinus pause. However, physiological parameters rapidly recover within 3-5 minutes. […] For each animal, a test IA injection was done prior to the onset of hypotension to ensure delivery of the desired injection volume and the injection sequence was resumed after bolus IV injections of hypotensive drugs.
Postmortem imaging. In preliminary experiments, known quantities of fluorescein-labeled TAT monomer was dissolved in intralipid and imaged using the multi-spectral imaging system. The multi-spectral imaging system contained two 470 nm light emitting diodes that evenly illuminated the test sample (Thor Labs Inc., NJ). An Evolve-512 (Photometerics Inc., Tucson, AZ) photon multiplying charge coupled device was used to image the sample through a 530 nm band pass filter. The camera is capable of performing background corrections and measuring the photon counts from the region of interest. Imaging conditions (sample, light source, and camera placements) were standardized throughout the experiment.
Immediately after sacrifice, the brains were harvested and immersed in cold saline. […] Samples were loaded on two capillary glass tubes that were placed alongside the tissue samples. Typically each specimen had 4 sections, one of which through the plane of the tumor was sent for frozen section, the remainder were placed in paraformaldehyde for paraffin blocks and histological sectioning.

C6 glioma = settings: IA-TCH, 0.5 mg, N=3
Procedure: For in vivo tumor delivery studies, rats were implanted with C6 brain tumor cells as previously described. […] They were scarified 10 minutes later and the brains were harvested and sectioned.
Fluorescence and electron multiplying charge-coupled device imaging. Fluorescence imaging was done with a white light excitation through a 470 nm filter with central frequency. Emission was observed through a 520 nm band pass filter using a fluorescence camera (Prosilica GE™ AVI Technologies Inc.). All images were normalized to the background and to the injected FITC-TAT concentrations—a sample of which was imaged alongside in a capillary tube.

[4] = IV injection, confocal microscopy
[5] = IV injection, multi-spectral imaging

N=C(N)NCCC[C@H](NC(=O)CNC(=O)c1ccc2c(c1)C(=O)OC21c2ccc(O)cc2Oc2cc(O)ccc21)C(=O)N[C@@H](CCCCN)C(=O)N[C@@H](CCCCN)C(=O)N[C@@H](CCCNC(=N)N)C(=O)N[C@@H](CCCNC(=N)N)C(=O)N[C@@H](CCC(N)=O)C(=O)N[C@@H](CCCNC(=N)N)C(=O)N[C@@H](CCCNC(=N)N)C(=O)N[C@@H](CCCNC(=N)N)C(=O)N1CCC[C@H]1C(=O)N1CCC[C@H]1C(=O)N[C@@H](CCC(N)=O)C(=O)N[C@@H](CCC(N)=O)C(=O)O [fluorescein-labeled TAT monomer, 5-FAM-GRKKRRQRRR PPQQ-COOH]
Deposition by hemisphere ([1]; IA-TCH carotid injection, confocal microscopy): detectable deposition preferentially to the hemisphere ipsilateral to carotid injection
Parenchymal deposition versus dose ([1]; IA-TCH, dose range 0.25-1 mg): dose dependent increase
Distribution in the brain (semi-quantitative) ([1]; IA-TCH, confocal microscopy): more diffuse deposition within the white matter
Distribution in the brain ([1]; IV delivery of 0.5 mg, FIG. 17 F): diffuse uptake of TAT in and beyond the blood vessels was seen preferentially in the white matter
Tumor selectivity (9L glioma tumors; IA-TCH): 5-6 ×
Fluorescence in the tumor versus the contralateral hemisphere (9L glioma tumors; IA-TCH, confocal microscopy): 10.78 ×
Fluorescence in the tumor versus the ipsilateral brain tissue (9L glioma tumors; IA-TCH, confocal microscopy): 5.07 ×
Fluorescence in the tumor versus the contralateral hemisphere (9L glioma tumors; IA-TCH, multi-spectral imaging): 9.90 ×
Fluorescence in the tumor versus the ipsilateral brain tissue (9L glioma tumors; IA-TCH, multi-spectral imaging): 5.93 ×
Fluorescence in the tumor versus the contralateral hemisphere (9L glioma tumors; [4]): 2.61 ×
Fluorescence in the tumor versus the ipsilateral brain tissue (9L glioma tumors; [4]): 2.43 ×
Fluorescence in the tumor versus the contralateral hemisphere (9L glioma tumors; [5]): 2.72 ×
Fluorescence in the tumor versus the ipsilateral brain tissue (9L glioma tumors; [5]): 2.59 ×
Tumor selectivity (9L glioma tumors; IV injections): 2 ×
Tumor concentration, IA-TCH relative to IV (9L glioma tumors; rat, in vivo, iv): about four-fold greater
Tumor TAT deposition compared to the corresponding contralateral region (9L glioma [2]; IA-TCH, N=8): 11.7 fold
Fluorescence in the tumor compared to the ipsilateral non-tumor regions (9L glioma [2]; six animals, FIG. 19E): 7.4 ×
Fluorescence in the tumor compared to the tumor site on the contralateral hemisphere (9L glioma [2]; six animals, FIG. 19E): 10.5 ×
Tumor concentration compared to brain tissue on the ipsi-lateral side (9L glioma [3]; IA-TCH): 6.1 fold
Contralateral fluorescence (9L glioma [3]; IA-TCH, n = 6): 0.029 ± 0.012 AU
Ipsi/contra-lateral ratio (9L glioma [3]; IA-TCH, n = 6): 1.7 ± 0.5
Ipsilateral fluorescence (9L glioma [3]; IA-TCH, n = 6): 0.047 ± 0.019 AU
Tumor fluorescence (9L glioma [3]; IA-TCH, n = 6): 0.277 ± 0.139 AU
Tumor/contralateral ratio (9L glioma [3]; IA-TCH, n = 6): 10.1 ± 4.9
Tumor/ipsilateral ratio (9L glioma [3]; IA-TCH, n = 6): 6.1 ± 2.6
Tumor concentration compared to brain tissue on the ipsi-lateral side (9L glioma [3]; IV): 2.3 fold and 2.4 fold
Ipsi/contra-lateral ratio (9L glioma [3]; IV, n = 6): 1.1 ± 0.3
Ipsilateral fluorescence (9L glioma [3]; IV, n = 6): 0.028 ± 0.005 AU
Tumor fluorescence (9L glioma [3]; IV, n = 6): 0.063 ± 0.030 AU
Tumor/contralateral ratio (9L glioma [3]; IV, n = 6): 2.7 ± 1.5
Tumor/ipsilateral ratio (9L glioma [3]; IV, n = 6): 2.4 ± 1.2
Overall effectiveness of IA-TCH relative to IV (9L glioma [3]; rat, in vivo): 4 ×
Deposition in tumor (semi-quantitative fluorescence imaging) (C6 glioma): preferentially targeted to the tumor mass in all animals

Reference: patent US11980667B2, “Short TAT oligomers for drug delivery” (The Trustees of Columbia University in the City of New York, priority 2017, dated 2024)
